Experimental findings from patent US10004701B2, “Methods and compositions for treating infection” (UNIVERSITY OF ROCHESTER, priority 2012, dated 2018) are described below.

Holding throughout (experiment): AK assay 384-well format, Prestwick library screening
Test [1] deals with E. faecium. It counts as cell-based, Enterococcus faecium. The conditions noted are these: 50 μM final drug concentration; for fold induction at 50 µM: Enterococcus faecium, 3 h; for AK-based Prestwick Library Screening Results, E. faecium (increase in extracellular AK activity): 384-well format.
Test [2] has as its system A. baumannii strain 98-37-09. It counts as cell-based, Acinetobacter baumannii. The following applies: 50 μM final drug concentration; for fold induction at 50 µM: Acinetobacter baumannii, 983709, 3 h; for AK-based Prestwick Library Screening Results, A. baumannii (increase in extracellular AK activity): 384-well format.
In test [3] the test system is P. aeruginosa. It counts as cell-based, Pseudomonas aeruginosa. The following applies: 50 μM final drug concentration; for fold induction at 50 µM: Pseudomonas aeruginosa, 3 h; for AK-based Prestwick Library Screening Results, P. aeruginosa (increase in extracellular AK activity): 384-well format.
Test [4] deals with E. coli. It counts as cell-based, Escherichia coli. The following applies: 50 μM final drug concentration; for fold induction at 50 µM: Escherichia coli, 3 h; for AK-based Prestwick Library Screening Results, E. coli (increase in extracellular AK activity): 384-well format.
The subject of test [5] is S. aureus strain USA300-0114. The test is classed as cell-based, Staphylococcus aureus. The conditions noted are these: 50 μM final drug concentration; for fold induction at 50 µM: Staphylococcus aureus, USA300, 3 h; for AK-based Prestwick Library Screening Results, S. aureus (increase in extracellular AK activity): 384-well format.
The test system of test [6] is E. cloacae. It counts as cell-based, Enterobacter cloacae. The conditions noted are these: 50 μM final drug concentration; for fold induction at 50 µM: Enterobacter cloacae, 3 h; for AK-based Prestwick Library Screening Results, E. cloacae (increase in extracellular AK activity): 384-well format.
The subject of test [7] is K. pneumoniae. It counts as cell-based, Klebsiella pneumoniae. The following applies: 50 μM final drug concentration; for fold induction at 50 µM: Klebsiella pneumoniae, 3 h; for AK-based Prestwick Library Screening Results, K. pneumoniae (increase in extracellular AK activity): 384-well format.
Where [8] appears, read: planktonic, cutoff for positive-scoring molecules 3-fold increase, read-out: AK-based Prestwick Library Screening Results, E. faecium (fold increase in extracellular AK activity).
The mark [9] stands for this setting: planktonic, cutoff for positive-scoring molecules 3-fold increase, read-out: AK-based Prestwick Library Screening Results, A. baumannii (fold increase in extracellular AK activity).
Where [10] appears, read: planktonic, cutoff for positive-scoring molecules 3-fold increase, read-out: AK-based Prestwick Library Screening Results, P. aeruginosa (fold increase in extracellular AK activity).
The mark [11] stands for this setting: planktonic, cutoff for positive-scoring molecules 3-fold increase, read-out: AK-based Prestwick Library Screening Results, E. coli (fold increase in extracellular AK activity).
The mark [12] stands for this setting: planktonic, cutoff for positive-scoring molecules 3-fold increase, read-out: AK-based Prestwick Library Screening Results, S. aureus (fold increase in extracellular AK activity).
Setting [13] is: planktonic, cutoff for positive-scoring molecules 3-fold increase, read-out: AK-based Prestwick Library Screening Results, E. cloacae (fold increase in extracellular AK activity).
Where [14] appears, read: planktonic, cutoff for positive-scoring molecules 3-fold increase, read-out: AK-based Prestwick Library Screening Results, K. pneumoniae (fold increase in extracellular AK activity).
The mark [15] stands for this setting: cutoff for positive-scoring molecules 3-fold increase.

Counter-ions that a name gives are not always drawn. Like-named read-outs stand apart in the source and are kept apart here.

In the case of `CC[C@@]1([C@@H]2O[C@@H]([C@H]3O[C@@](O)(CO)[C@H](C)C[C@@H]3C)C[C@@H]2C)CC[C@H]([C@]2(C)CC[C@]3(C[C@H](O)[C@@H](C)[C@@H]([C@@H](C)[C@@H](OC)[C@H](C)C(=O)O)O3)O2)O1` [Monensin sodium salt], the fold induction at 50 µM in test [1] (setting [8]) worked out at 1.1; in test [2] (setting [9]), 0.7; in test [3] (setting [10]), 0.9; in test [4] (setting [11]), 0.9; in test [5] (setting [12]), 0.7; in test [6] (setting [13]), 1.1. The fold induction at 50 µM in test [7] (setting [14]) was found to be 0.6.
For `Oc1ccc(OCc2ccccc2)cc1` [Monobenzone], the fold induction at 50 µM in test [1] (setting [8]) amounted to 0.6; in test [2] (setting [9]), 0.5; in test [3] (setting [10]) it was 0.7; in test [4] (setting [11]) it was 0.7; in test [5] (setting [12]), 0.6; in test [6] (setting [13]) it was 1.4. Besides, the fold induction at 50 µM in test [7] (setting [14]) was 0.5.
In the case of `C[C@H]1C(=O)O[C@@H]2CCN3CC=C(COC(=O)[C@](C)(O)[C@]1(C)O)[C@H]23` [Monocrotaline], the fold induction at 50 µM in test [1] (planktonic, […], read-out: AK-based Prestwick Library Screening Results, E. faecium (fold increase in extracellular AK activity)) was 1.1; in test [2] (planktonic, […], read-out: AK-based Prestwick Library Screening Results, A. baumannii (fold increase in extracellular AK activity)), 1.2; in test [3] (planktonic, […], read-out: AK-based Prestwick Library Screening Results, P. aeruginosa (fold increase in extracellular AK activity)) it was 1.2; in test [4] (planktonic, […], read-out: AK-based Prestwick Library Screening Results, E. coli (fold increase in extracellular AK activity)), 1.3; in test [5] (planktonic, […], read-out: AK-based Prestwick Library Screening Results, S. aureus (fold increase in extracellular AK activity)) it was 1; in test [6] (planktonic, […], read-out: AK-based Prestwick Library Screening Results, E. cloacae (fold increase in extracellular AK activity)) it was 1.3. Further, the fold induction at 50 µM in test [7] (planktonic, […], read-out: AK-based Prestwick Library Screening Results, K. pneumoniae (fold increase in extracellular AK activity)) stood at 1.
On to `Cc1ccsc1/C=C/C1=NCCCN1C` [Morantel tartrate], for which the fold induction at 50 µM in test [1] (planktonic E. faecium, 384-well, […], read-out: AK-based Prestwick Library Screening Results: E. faecium (increase in extracellular AK activity)) was 0.8; in test [2] (planktonic A. baumannii, 384-well, […], read-out: AK-based Prestwick Library Screening Results: A. baumannii (increase in extracellular AK activity)), 1.1; in test [3] (planktonic P. aeruginosa, 384-well, […], read-out: AK-based Prestwick Library Screening Results: P. aeruginosa (increase in extracellular AK activity)) it was 1.2; in test [4] (planktonic E. coli, 384-well, […], read-out: AK-based Prestwick Library Screening Results: E. coli (increase in extracellular AK activity)) it was 1.4; in test [5] (planktonic S. aureus, 384-well, […], read-out: AK-based Prestwick Library Screening Results: S. aureus (increase in extracellular AK activity)), 1.2; in test [6] (planktonic E. cloacae, 384-well, […], read-out: AK-based Prestwick Library Screening Results: E. cloacae (increase in extracellular AK activity)), 1.3. Also, the fold induction at 50 µM in test [7] (planktonic K. pneumoniae, 384-well, […], read-out: AK-based Prestwick Library Screening Results: K. pneumoniae (increase in extracellular AK activity)) was 0.9.
With `CCOC(=O)Nc1ccc2c(c1)N(C(=O)CCN1CCOCC1)c1ccccc1S2` [Moricizine hydrochloride], the fold induction at 50 µM in test [1] (cutoff for positive-scoring molecules 3-fold increase, read-out: AK-based Prestwick Library Screening Results, E. faecium (fold increase in extracellular AK activity)) came to 1; in test [2] (cutoff for positive-scoring molecules 3-fold increase, read-out: AK-based Prestwick Library Screening Results, A. baumannii (fold increase in extracellular AK activity)), 0.6; in test [3] (cutoff for positive-scoring molecules 3-fold increase, read-out: AK-based Prestwick Library Screening Results, P. aeruginosa (fold increase in extracellular AK activity)), 0.6; in test [4] (cutoff for positive-scoring molecules 3-fold increase, read-out: AK-based Prestwick Library Screening Results, E. coli (fold increase in extracellular AK activity)), 0.6; in test [5] (cutoff for positive-scoring molecules 3-fold increase, read-out: AK-based Prestwick Library Screening Results, S. aureus (fold increase in extracellular AK activity)), 0.6; in test [6] (cutoff for positive-scoring molecules 3-fold increase, read-out: AK-based Prestwick Library Screening Results, E. cloacae (fold increase in extracellular AK activity)) it was 0.7. Also, the fold induction at 50 µM in test [7] (cutoff for positive-scoring molecules 3-fold increase, read-out: AK-based Prestwick Library Screening Results, K. pneumoniae (fold increase in extracellular AK activity)) stood at 0.6.
As to `Cl.N=C(N=C(N)N)N1CCOCC1` [Moroxidine hydrochloride], the “AK-based Prestwick Library Screening Results, E. faecium (increase in extracellular AK activity)” value in test [1] (setting [15]) amounted to 0.8. Moreover, the “AK-based Prestwick Library Screening Results, A. baumannii (increase in extracellular AK activity)” value in test [2] (setting [15]) worked out at 0.4. Moreover, the “AK-based Prestwick Library Screening Results, P. aeruginosa (increase in extracellular AK activity)” value in test [3] (setting [15]) was 0.3. Also, the “AK-based Prestwick Library Screening Results, E. coli (increase in extracellular AK activity)” value in test [4] (setting [15]) stood at 0.5. In addition, the “AK-based Prestwick Library Screening Results, S. aureus (increase in extracellular AK activity)” value in test [5] (setting [15]) came to 0.4. Moreover, in test [6] (setting [15]), the “AK-based Prestwick Library Screening Results, E. cloacae (increase in extracellular AK activity)” value came out at 0.3. The “AK-based Prestwick Library Screening Results, K. pneumoniae (increase in extracellular AK activity)” value in test [7] (setting [15]) was determined as 0.4.
For the molecule `CO[C@@]1(NC(=O)C(C(=O)O)c2ccc(O)cc2)C(=O)N2C(C(=O)O)=C(CSc3nnnn3C)CO[C@@H]21` (stereo partly drawn) [Moxalactam disodium salt], the fold induction at 50 µM in test [1] (setting [8]) was found to be 1.3; in test [2] (setting [9]) it was 0.6; in test [3] (setting [10]), 0.6; in test [4] (setting [11]), 18.1; in test [5] (setting [12]) it was 4.4; in test [6] (setting [13]), 0.8. Besides, the fold induction at 50 µM in test [7] (setting [14]) stood at 3.9.
Turning to `CC(=O)Oc1cc(C(C)C)c(OCCN(C)C)cc1C.Cl` [Moxisylyte hydrochoride], the “AK-based Prestwick Library Screening Results, E. faecium (increase in extracellular AK activity)” value in test [1] (setting [15]) came to 0.9. Moreover, the “AK-based Prestwick Library Screening Results, A. baumannii (increase in extracellular AK activity)” value in test [2] (setting [15]) is 1.1. The “AK-based Prestwick Library Screening Results, P. aeruginosa (increase in extracellular AK activity)” value in test [3] (setting [15]) turned out to be 1.1. Besides, in test [4] (setting [15]), the “AK-based Prestwick Library Screening Results, E. coli (increase in extracellular AK activity)” value was 1.2. Also, in test [5] (setting [15]), the “AK-based Prestwick Library Screening Results, S. aureus (increase in extracellular AK activity)” value came out at 1.1. Moreover, the “AK-based Prestwick Library Screening Results, E. cloacae (increase in extracellular AK activity)” value in test [6] (setting [15]) is reported as 1.6. The “AK-based Prestwick Library Screening Results, K. pneumoniae (increase in extracellular AK activity)” value in test [7] (setting [15]) worked out at 1.0.
In the case of `COc1nc(C)nc(Cl)c1N=C1NCCN1` [Moxonidine], the fold induction at 50 µM is 0.9 in test [1] (planktonic E. faecium, positive cutoff 3-fold increase, read-out: AK-based Prestwick library screening result, E. faecium (fold increase in extracellular AK activity)); 1.1 in test [2] (planktonic A. baumannii, positive cutoff 3-fold increase, read-out: AK-based Prestwick library screening result, A. baumannii (fold increase in extracellular AK activity)); 1.1 in test [3] (planktonic P. aeruginosa, positive cutoff 3-fold increase, read-out: AK-based Prestwick library screening result, P. aeruginosa (fold increase in extracellular AK activity)); 1.1 in test [4] (planktonic E. coli, positive cutoff 3-fold increase, read-out: AK-based Prestwick library screening result, E. coli (fold increase in extracellular AK activity)); 1 in test [5] (planktonic S. aureus, positive cutoff 3-fold increase, read-out: AK-based Prestwick library screening result, S. aureus (fold increase in extracellular AK activity)); 1.8 in test [6] (planktonic E. cloacae, positive cutoff 3-fold increase, read-out: AK-based Prestwick library screening result, E. cloacae (fold increase in extracellular AK activity)). Also, in test [7] (planktonic K. pneumoniae, positive cutoff 3-fold increase, read-out: AK-based Prestwick library screening result, K. pneumoniae (fold increase in extracellular AK activity)), the fold induction at 50 µM was determined as 1.1.
